Like-named read-outs stand apart in the source and are kept apart here.
Assays:
A549 cells [1] = assay: BrdU-ELISA (DNA synthesis inhibition); type: cell-based; settings: Homo sapiens, read-out: IC50 BrdU-ELISA
Protocol: BrdU-ELISA was performed according to the protocol described by Lehmann and collaborators, and the results were used to evaluate the inhibition of DNA synthesis. A total of 1 × 10^4 cells/well were seeded in 100 µL of fresh medium into 96-well plates in triplicate at 37 °C in a humidified atmosphere of 95% air plus 5% CO2 for 24 h. Then, the medium was removed and replaced with 200 µL of medium with the same concentrations of CBD and CBDV that had been used in the previous test. In all experiments, blanks (wells with medium and without cells), negative controls (with only medium) and solvent controls (2.5% methanol) were included. The plates were incubated at 37 °C for 72 h. Then, 20 µL of 100 µM BrdU labelling solution was added to each well and incubated for 2 h at 37 °C. After removing the labelling solution, 200 µl of DNA fixing/denaturing solution was added to each well and incubated for 30 min at room temperature. After its discharge, 100 µL of the anti-BrdU-POD antibody solution [0.075 U/mL] was added to each well and incubated for 90 min at room temperature. After several washing steps with 1X PBS (200–300 µL/well), 100 µl of tetramethylbenzidine (TMB) was added to each well and incubated for 20–30 min (sufficient time for the colour change). The incorporation of BrdU into DNA was quantified spectrophotometrically at 370 nm. […] The mean absorbance of the control cells represented 100% cell proliferation, and the mean absorbance of the treated cells was related to the control values to determine cell sensitivity. Inhibition (%) of DNA synthesis/cell viability was determined as follows:2 IC%=1-OD370sample/OD370negativecontrol·100
IC50 values (representing the median concentration at which DNA synthesis and cell viability were reduced by 50%) were calculated.
(§1) All results from five independent experiments are expressed as the IC50 or EC50 as determined by analysis with Prism 5 software (GraphPad Inc., San Diego, CA, USA) and nonlinear regression (log agonist vs. normalized response-variable slope) with a 95% confidence range. Lowest observed adverse effect concentrations (LOAECs) were calculated by one-way ANOVA and Dunnett’s comparison test. Differences compared to the controls were considered significant as follows: *p < 0.05, **p < 0.001 and ***p < 0.0001.

A549 cells [2] = assay: LDH assay (plasma membrane damage); type: cell-based; settings: Homo sapiens, read-out: IC50 LDH assay
Protocol: (§2) LDH assay is a high-throughput method based on the release of the LDH cytoplasmic enzyme from the cytosol into the extracellular space when the plasma membrane is damaged[29],[30]. Plasma membrane damage related to the amount of lysed cells was monitored by LDH assay, and the results were used for indirectly detecting the necrosis correlated to the leakage of the cytosolic enzyme due the loss of membrane permeability control[29],[30]. This assay was performed with the protocol described by Lehmann and colleagues.
(§3) Briefly, 1 × 10^4 A549 and Caco-2 cells and 2 × 10^4 HepG2, MDA-MB-231 and TelCOFS02MA cells were seeded in 100 µL of 1% FBS-fresh medium in each well of 96-well plates and incubated for 24 h at 37 °C with 95% humidity and 5% CO2. Then, the medium was removed and replaced with 100 µL of medium with different concentrations of CBD and CBDV, which were chosen on the basis of range-finding tests (as previously indicated). The plates were incubated at 37 °C for 72 h. In all experiments, the background control (wells with medium and without cells to obtain information about the LDH activity in the assay medium), low control (wells containing cells exposed only to the medium to determine spontaneous LDH release), high control (wells containing cells exposed to 2% Triton-X100 for 10 min before performing the assay to determine maximum LDH release), and solvent controls (2.5% methanol) were included. One hundred microlitres of supernatant was removed carefully from each well and transferred into corresponding wells in optically clear 96-well flat bottom microplates. One hundred microlitres of freshly prepared reaction mixture (Diaphorase (Catalyst)/NAD^+ /INT/sodium lactate) was added to each well and incubated for 30 min at 20 °C in darkness. Thus, NAD^+ was reduced to NADH/H^+ by the LDH-catalysed conversion of lactate to pyruvate. Then, the catalyst transferred H/H^+ from NADH/H^+ to the tetrazolium salt INT, which was reduced to formazan. To arrest the reaction, 50 µL/well of 1 N HCl was added. The spectrophotometric absorbance was determined at 492 nm. The absorbance of the background control wells was subtracted from all other values.
(§4) The results are reported as percentages of cytotoxicity, which is linked to the percentage of LDH released from damaged plasma membranes, calculated as follows:3 IC%=OD492sample-OD492lowcontrol/OD492highcontrol-OD492lowcontrol·100
(§5) IC50 values (concentrations of the sample to obtain 50% cytotoxicity) were calculated.
as §1

Caco-2 cells = assay: LDH assay (plasma membrane damage); type: cell-based; settings: Homo sapiens, read-out: IC50 LDH assay
Protocol: as §2, §3, §4, §5, §1

Hep G2 cells = assay: LDH assay (plasma membrane damage); type: cell-based; settings: Homo sapiens, read-out: IC50 LDH assay
Protocol: as §2, §3, §4, §5, §1

MDA-MB-231 cells = assay: LDH assay (plasma membrane damage); type: cell-based; settings: Homo sapiens, read-out: IC50 LDH assay
Protocol: as §2, §3, §4, §5, §1

TelCOFS02MA cells = assay: LDH assay (plasma membrane damage); type: cell-based, human; settings: for IC50: Homo sapiens, read-out: IC50 LDH assay
Protocol: as §2, §3, §4, §5
All results from five independent experiments are expressed as the IC50 or EC50 as determined by analysis with Prism 5 software (GraphPad Inc., San Diego, CA, USA) and nonlinear regression (log agonist vs. normalized response-variable slope) with a 95% confidence range. […]

[3] = ABTS assay (radical scavenging); settings: for TEAC (Trolox equivalent antioxidant capacity), ABTS: EC50 Trolox/EC50 sample; for ABTS scavenging capacity less than the capacity of Trolox: compared with Trolox
Protocol: An ABTS assay was performed following the procedure described by Lavorgna et al. 2019[66]. The cationic ABTS radical (ABTS^+) was generated by oxidizing ABTS (7 mM) with potassium persulfate (140 mM K2S2O8), and the mixture was incubated for 12–16 h in the dark. The ABTS^+ working solution was diluted to an absorbance of […] OD at 734 nm. […] Distilled water was used for the blank, Trolox was used for the standard control, and methanol was used for the solvent control.
The results are expressed as the median effective concentration (EC50). Furthermore, Trolox equivalent antioxidant capacity (TEAC) values were calculated following the procedure used by Shimamura end colleagues[68]:5 TEAC=EC50Trolox/EC50sample
as §1

[4] = DPPH assay (radical scavenging); settings: for DPPH scavenging capacity less than the capacity of Trolox: compared with Trolox
Protocol: DPPH assay was performed following the protocol described by Brand-Williams et al.[69]. DPPH^⋅ was dissolved in methanol, generating a purple solution (101.43 µM). […] Furthermore, 940 μL of methanol and 60 μL of distilled water were used for the blank. Trolox was used as the standard control, and methanol was used as the solvent control.
The results were expressed as the median effective concentration of sample able to reduce the initial absorbance of the DPPH radical (EC50). Furthermore, TEAC values were calculated in line with Shimamura end colleagues[68] as previously reported.
as §1

[5] = A549, 72 h exposure, 95% confidence interval in brackets

**Q.** For `C=C(C)[C@@H]1CCC(C)=C[C@H]1c1c(O)cc(CCCCC)cc1O` [CBD, Cannabidiol], which IC50 (A549 cells [1]; [5]) is on record?
**A.** Its IC50 is 40.4 µM.

**Q.** What about the IC50 (A549 cells [2]; [5]) of the same molecule?
**A.** The IC50 was 24 µM.

**Q.** What about the IC50 (Caco-2 cells; Caco-2, 72 h exposure, 95% confidence interval in brackets) of the same molecule?
**A.** Its IC50 is 22.8 µM.

**Q.** What about the IC50 (Hep G2 cells; HepG2, Hep G2, 72 h exposure, 95% confidence interval in brackets) of the same molecule?
**A.** The IC50 was 18.1 µM.

**Q.** What about the IC50 (MDA-MB-231 cells; MDA-MB-231, 72 h exposure, 95% confidence interval in brackets) of the same molecule?
**A.** Its IC50 is 22.1 µM.

**Q.** What about the IC50 (TelCOFS02MA cells; TelCOFS02MA, 72 h exposure, 95% confidence interval in brackets) of the same molecule?
**A.** Its IC50 is 118 µM.

**Q.** What about the “LOAEC LDH assay” value (TelCOFS02MA cells; TelCOFS02MA, 72 h) of the same molecule?
**A.** The value was 80 µM.

**Q.** And the “TEAC (Trolox equivalent antioxidant capacity), ABTS” value [3]?
**A.** Its value is 0.21.

**Q.** And the “ABTS scavenging capacity less than the capacity of Trolox” value [3]?
**A.** Its value is 79%.

**Q.** And the “DPPH scavenging capacity less than the capacity of Trolox” value [4]?
**A.** Its value is 90%.

**Q.** For `C=C(C)[C@@H]1CCC(C)=C[C@H]1c1c(O)cc(CCC)cc1O` [CBDV, cannabidivarin], which IC50 (A549 cells [1]; A549, 72 h) is on record?
**A.** The IC50 was 48.6 µM.

**Q.** What about the IC50 (A549 cells [2]; A549, 72 h) of the same molecule?
**A.** Its IC50 is 26.3 µM.

**Q.** And the IC50 (Caco-2 cells; Caco-2, 72 h)?
**A.** The IC50 was 29.1 µM.

**Q.** And the IC50 (Hep G2 cells; HepG2, 72 h)?
**A.** Its IC50 is 21.2 µM.

**Q.** What about the IC50 (MDA-MB-231 cells; MDA-MB-231, 72 h) of the same molecule?
**A.** Its IC50 is 33.8 µM.

**Q.** What about the IC50 (TelCOFS02MA cells; 72 h) of the same molecule?
**A.** The IC50 was 152 µM.

**Q.** What about the “LOAEC LDH assay” value (TelCOFS02MA cells; TelCOFS02MA, 72 h) of the same molecule?
**A.** Its value is 88 µM.

**Q.** And the “TEAC (Trolox equivalent antioxidant capacity), ABTS” value [3]?
**A.** The value was 0.27.

**Q.** And the “ABTS scavenging capacity less than the capacity of Trolox” value [3]?
**A.** Its value is 73%.

**Q.** What about the “TEAC (Trolox equivalent antioxidant capacity), DPPH” value ([4]; EC50 Trolox/EC50 sample) of the same molecule?
**A.** Its value is 0.09.

**Q.** And the “DPPH scavenging capacity less than the capacity of Trolox” value [4]?
**A.** Its value is 91%.
